Measured values taken from patent US20240208907A1, “GPR52 MODULATORS AND METHODS OF USE” (Neurocrine Biosciences, Inc., priority 2021, published 2024).
Structures can show the parent of a compound that is named as a salt.

Target: T1, recombinant human GPR52 (Homo sapiens, UniProt Q9Y2T5)
T1 construct: expressed in transfected cells
Assay: GPR52 activity: TR-FRET cAMP assay (LANCE Ultra cAMP Kit)
Type: cell-based
Conditions: Flp-In-CHO cells stably expressing recombinant human GPR52; cAMP production, normalized to positive control
Method: TR-FRET cAMP assays were performed using commercially available assay kits (LANCE™ Ultra cAMP Kit). Controls and compounds were solubilized in DMSO using ½ log dilution to generate duplicate 10-point dose response curves in 384-well polypropylene compound plates. Sixty nanoliters of the diluted compounds were transferred into 384-well NBS assay plates and further diluted to 1× with the addition of 2000 cells per well. Flp-In™-CHO cells that stably express recombinant human GPR52.
Cells were harvested with cell stripper and resuspended in Stimulation Buffer (5 mM HEPES, 0.1% bovine serum albumin (BSA), 0.5 mM IBMX, pH 7.4). After thirty minutes incubation at room temperature, detection reagents were added to each well. Plates were then incubated for 30 minutes at room temperature. The LANCE™ Ultra cAMP assay uses time-resolved fluorescence resonance energy transfer (TR-FRET) to detect cAMP production; this signal was quantified using a Pherastar multi-mode plate reader.
Dose-response curves were generated from the fluorescence counts normalized to the positive control. E EC50 values were obtained using a nonlinear regression curve-fitting program.

T1 sequence (Q9Y2T5 whole entry): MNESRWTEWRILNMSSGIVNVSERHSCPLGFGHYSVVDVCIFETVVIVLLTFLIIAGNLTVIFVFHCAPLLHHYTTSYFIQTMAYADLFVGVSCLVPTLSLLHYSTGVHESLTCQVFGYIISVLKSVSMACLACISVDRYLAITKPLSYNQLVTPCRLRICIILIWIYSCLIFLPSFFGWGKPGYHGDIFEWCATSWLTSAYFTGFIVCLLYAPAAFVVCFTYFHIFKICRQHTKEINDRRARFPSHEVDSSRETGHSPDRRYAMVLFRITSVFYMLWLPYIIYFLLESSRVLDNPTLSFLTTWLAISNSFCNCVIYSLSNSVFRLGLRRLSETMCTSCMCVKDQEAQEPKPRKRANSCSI

SMILES | EC50 [nM]
Cc1cc(-c2cc(Cc3cc(F)cc(C#N)c3)ccn2)ccc1C(N)=O [Compound 3, 4-{4-[(3-cyano-5-fluorophenyl)methyl]pyridin-2-yl}-2-methylbenzamide] | < 25
N#Cc1cc(Cc2ccnc(-c3ccc(C(N)=O)cc3)c2)cc(F)c1F [Compound 30, 4-{4-[(3-cyano-4,5-difluorophenyl)methyl]pyridin-2-yl}benzamide hydrochloride] | 101 to 1000
